In article PMC6054458 (Molecular cancer therapeutics, 2017):

Target: MDM2 (Homo sapiens, UniProt Q00987)
Assay: ITC
Type: binding

Sequence of MDM2 (Q00987 428-491 limits assumed): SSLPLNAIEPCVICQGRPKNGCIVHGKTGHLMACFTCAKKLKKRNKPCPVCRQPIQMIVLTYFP

Kd: 370 nM
Compound: O=C(CCl)Nc1cc(O)c2c(c1)C(=O)c1cccc(O)c1C2=O [AQ-101]
